From publication PMC7366829 (Acta biomaterialia, 2020)

Assays:
β2AR = β2AR (Homo sapiens, UniProt P07550); assay: radioligand binding, G-50 column; conditions: 10 nM [3H]-DHA; pH 7.5; 100 mM NaCl; room temperature; antagonist; labelled compound
MelBSt = MelBSt (Salmonella enterica, UniProt P30878); assay: Trp to D2G FRET; format: binding; conditions: 10 μM D2G; 23 °C; DDM or GNG-3,14 extract; active site
MelBEc = MelBEc (Escherichia coli, UniProt P02921); assay: Trp to D2G FRET; format: binding; conditions: 10 μM D2G; 23 °C; GNG-3,14 extract; active site
Chain of MelBEc (P02921 2-473): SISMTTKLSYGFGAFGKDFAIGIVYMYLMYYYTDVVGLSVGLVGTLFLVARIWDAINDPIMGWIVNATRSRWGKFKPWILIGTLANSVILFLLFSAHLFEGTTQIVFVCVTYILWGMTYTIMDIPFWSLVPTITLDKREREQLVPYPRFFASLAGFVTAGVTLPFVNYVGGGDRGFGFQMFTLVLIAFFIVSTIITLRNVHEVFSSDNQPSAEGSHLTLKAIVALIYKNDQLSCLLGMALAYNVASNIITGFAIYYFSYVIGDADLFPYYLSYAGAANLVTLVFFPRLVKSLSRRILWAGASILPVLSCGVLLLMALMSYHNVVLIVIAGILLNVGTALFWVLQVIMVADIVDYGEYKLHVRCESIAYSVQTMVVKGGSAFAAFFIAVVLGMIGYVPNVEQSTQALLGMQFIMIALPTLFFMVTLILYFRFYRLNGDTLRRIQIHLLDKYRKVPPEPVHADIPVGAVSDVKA

Chain of MelBSt (P30878 whole entry): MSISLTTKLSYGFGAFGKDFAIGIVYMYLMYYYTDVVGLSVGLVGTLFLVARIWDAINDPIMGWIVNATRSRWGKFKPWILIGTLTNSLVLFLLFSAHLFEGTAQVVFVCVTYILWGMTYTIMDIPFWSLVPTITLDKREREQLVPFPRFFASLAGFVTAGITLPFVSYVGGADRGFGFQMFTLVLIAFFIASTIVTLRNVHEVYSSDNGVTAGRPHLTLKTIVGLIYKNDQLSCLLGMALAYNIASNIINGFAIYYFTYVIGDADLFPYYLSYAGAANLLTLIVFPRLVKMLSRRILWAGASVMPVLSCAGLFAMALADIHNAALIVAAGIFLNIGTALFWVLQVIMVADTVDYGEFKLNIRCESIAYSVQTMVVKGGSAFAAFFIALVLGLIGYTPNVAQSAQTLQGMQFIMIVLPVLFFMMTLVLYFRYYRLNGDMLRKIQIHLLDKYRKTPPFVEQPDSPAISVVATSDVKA
Chain of β2AR (P07550 whole entry): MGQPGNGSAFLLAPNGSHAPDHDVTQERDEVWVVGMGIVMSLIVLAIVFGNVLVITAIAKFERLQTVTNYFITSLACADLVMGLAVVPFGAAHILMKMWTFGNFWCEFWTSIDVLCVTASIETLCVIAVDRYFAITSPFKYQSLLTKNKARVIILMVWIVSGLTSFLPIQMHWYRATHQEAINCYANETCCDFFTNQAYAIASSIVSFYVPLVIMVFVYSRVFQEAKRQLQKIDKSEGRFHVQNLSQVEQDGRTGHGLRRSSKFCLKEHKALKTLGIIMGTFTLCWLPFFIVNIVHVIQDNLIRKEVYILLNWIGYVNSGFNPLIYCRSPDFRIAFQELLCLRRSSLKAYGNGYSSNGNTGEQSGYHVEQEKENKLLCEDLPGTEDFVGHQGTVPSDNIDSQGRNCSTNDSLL

SMILES	radioligand binding, G-50 column (β2AR)	Trp to D2G FRET (MelBSt)	Trp to D2G FRET (MelBEc)
CCCc1ccccc1OCC(O)CNC(C)C (stereo not drawn) [[3H]-dihydroalprenolol]	ligand binding assay using a radio-active antagonist ([^3H]-DHA)		
CN(C)c1cccc2c(S(=O)(=O)NCCS[C@@H]3O[C@H](CO)[C@H](O)[C@H](O)[C@H]3O)cccc12 [D2G, 2’-(N-Dansyl)aminoalkyl-1-thio-β-D-galactopyranoside]		DDM or GNG-3,14-extracted MelBSt responded to addition of D^2G and melibiose	GNG-3,14-extracted MelBEc was functional under the same conditions
